Drawing on patent US10464926B2, “Heterobicyclic compounds and their use for the treatment of tuberculosis” (OTSUKA PHARMACEUTICAL CO., LTD., priority 2014, dated 2019), this text covers melting point for 70 compounds.

By melting point is commonly meant the temperature, or range, at which the solid turns liquid.

Regarding `O=C1CCc2c(OC[C@]3(O)CCN(c4ccc(Cl)cc4F)C[C@@H]3O)ccc(F)c2N1`, the melting point was 198.6 to 198.8 °C.

In turn, `O=C1CCc2c(OC[C@]3(O)CCN(c4ccc(Cl)cc4F)C[C@@H]3F)ccc(F)c2N1` (relative stereo) returned a melting point of 190 to 191 °C.

`Cc1ccc(N2CCC(O)(COc3ccc(F)c4c3CCC(=O)N4)CC2)cc1` showed a melting point of 181 °C.

In turn, `O=C1CCc2c(OC[C@]3(O)CCN(c4c(F)cc(Br)cc4F)C[C@H]3O)ccc(Cl)c2N1` (relative stereo) [Example 339] had a melting point of 195 to 198 °C. On to `CC(C)c1ccc(N2CCC(O)(COc3ccc(F)c4c3CCC(=O)N4)CC2)c(Cl)c1`, for which the melting point lay within 176.5 to 176.9 °C.

In turn, `O=C1CCc2c(OCC3(O)CCN(c4ccc(Oc5ccccc5)cc4)CC3)ccc(F)c2N1` came in with a melting point of 186.9 to 187.2 °C. `O=C1CCc2c(NCC3(O)CCN(c4ccc(Cl)cc4F)CC3)ccc(F)c2N1` displayed a melting point of 225 to 226 °C. `O=C1CCc2c(OC[C@]3(O)CCN(c4ccc(Cl)cc4Cl)C[C@H]3O)ccc(Cl)c2N1` registered a melting point of 184.1 to 185.1 °C.

`O=C1CCc2c(OCC3(O)CCN(c4c(F)cc(Br)cc4F)CC3)cc(F)c(Cl)c2N1` gave a melting point of 200.5 to 200.8 °C. In the case of `CCSc1cc(F)c(N2CCC(O)(COc3ccc(Cl)c4c3CCC(=O)N4)CC2)c(F)c1` it was 157.4 to 157.5 °C; in that of `O=C1CCc2c(OCC3(O)CCN(c4ccccc4OC(F)(F)F)CC3)ccc(F)c2N1`, 168 °C. `O=C1CCc2c(OC[C@]3(O)CCN(c4c(F)cc(OC(F)F)cc4F)C[C@H]3O)ccc(F)c2N1` (relative stereo) [Example 314] showed a melting point of 167 to 169 °C.

`O=c1ccc2c(OC[C@]3(O)CCN(c4c(F)cc(Cl)cc4F)C[C@H]3O)ccc(F)c2[nH]1` (relative stereo) [Example 371] showed a melting point of 232 °C. For `O=C1CCc2c(OC[C@]3(O)CCN(c4ccc(F)cc4F)C[C@H]3O)ccc(F)c2N1`, the melting point lay within 175.2 to 176.1 °C.

Take `O=C1CCc2c(OC[C@]3(O)CCN(c4ccc(F)cc4Cl)C[C@H]3O)cc(F)c(F)c2N1`: the melting point is 192.2 to 193.2 °C. The same measure for `CC(=O)O[C@@H]1CN(c2c(F)cc(Cl)cc2F)CC[C@@]1(O)COc1ccc(F)c2c1CCC(=O)N2`: 163 to 165 °C; for `O=C1CCc2c(OCC3(O)CCN(c4ccc(OC(F)(F)F)cc4F)CC3)ccc(F)c2N1`: 174.2 to 174.3 °C; for `O=C1CCc2c(OCC3(O)CCN(c4ccc(OC(F)(F)F)cc4Cl)CC3)ccc(F)c2N1`: 181.8 to 181.9 °C. In turn, `O=c1ccc2c(OCC3(O)CCN(c4ccc(Cl)cc4F)CC3)ccc(F)c2[nH]1` gave a melting point of 255 to 256 °C. The compound `CCOc1cccc(N2CCC(O)(COc3ccc(F)c4c3CCC(=O)N4)CC2)c1` showed a melting point of 128.1 °C. As for `O=C1CCc2c(OCC3(O)CCN(c4ccc5sccc5c4)CC3)ccc(Cl)c2N1`, the melting point fell in the range of 193.8 to 194.5 °C.

In the case of `CCOc1c(F)c(F)c(N2CCC(O)(COc3ccc(F)c4c3CCC(=O)N4)CC2)c(F)c1F`, the melting point was 208.9 to 209.3 °C.

`O=C1CCc2c(OCC3(O)CCN(c4ncc(C(F)(F)F)cc4Cl)CC3)ccc(Cl)c2N1` had a melting point of 193 to 194.7 °C. In the case of `CCCc1ccc(N2CCC(O)(COc3ccc(F)c4c3CCC(=O)N4)CC2)c(Cl)c1` it was 197.5 to 197.6 °C; in that of `O=C1CCc2c(OCC3(O)CCN(c4ccc(OCc5ccc(C(F)(F)F)cc5)cc4F)CC3)ccc(F)c2N1`, 207.4 to 210.3 °C; in that of `O=C1CCc2c(OCC3(O)CCN(c4c(F)cc(Br)cc4F)CC3)ccc(Cl)c2N1`, 195.3 to 195.4 °C.

Regarding `CCOc1cnc(N2CCC(O)(COc3ccc(F)c4c3CCC(=O)N4)CC2)c(Cl)c1`, the melting point fell in the range of 187.9 to 190.2 °C. On to `COc1cc(N2CCC(O)(COc3ccc(Cl)c4c3CCC(=O)N4)CC2)c(F)cc1F`, for which the melting point fell in the range of 191.4 to 191.7 °C. In the case of `O=C1CCc2c(OCC3(O)CCN(c4cc(OCc5ccc(Cl)cc5)c(Cl)cc4F)CC3)ccc(F)c2N1` it was 205.1 to 205.7 °C.

In turn, `COCCOc1ccc(N2CCC(O)(COc3ccc(F)c4c3CCC(=O)N4)CC2)c(F)c1` registered a melting point of 174 °C. As to `N#Cc1cc(F)ccc1N1CCC(O)(COc2ccc(F)c3c2CCC(=O)N3)CC1`, the melting point was in the range of 206 to 206.9 °C. The same measure for `O=C1CCc2c(OCC3(O)CCN(c4c(F)cc(Br)cc4F)CC3)ccc(F)c2N1`: 217.7 to 217.9 °C; for `O=C1CCc2c(OC[C@]3(O)CCN(c4cc(F)c(Cl)cc4F)C[C@H]3O)ccc(F)c2N1`: 199 to 199.7 °C; for `CCCCOc1ccc(N2CCC(O)(COc3ccc(F)c4c3CCC(=O)N4)CC2)c(F)c1`: 193.2 to 193.5 °C. On to `N#CC1(COc2ccc(F)c3c2CCC(=O)N3)CCN(c2ncc(Cl)cc2Cl)CC1`, for which the melting point turned out to be 218 °C. On to `O=C1CCc2c(OCC3(O)CCN(c4ccc(Br)cc4F)CC3)ccc(F)c2N1`, for which the melting point fell in the range of 204.8 to 205 °C. `CC(C)c1ccc(N2CCC(O)(COc3ccc(F)c4c3CCC(=O)N4)CC2)cc1` showed a melting point of 194.9 to 195 °C. `O=C1CCc2c(OCC3(O)CCN(c4cc5c(cc4F)OC(F)(F)O5)CC3)ccc(F)c2N1` showed a melting point of 226.6 to 226.7 °C. In the case of `CCOc1cc(F)c(N2CCC(O)(COc3ccc(Cl)c4c3CCC(=O)N4)CC2)c(F)c1` it was 180.6 to 181 °C. `O=C1CCc2c(OC[C@]3(O)CCN(c4c(F)cc(Cl)cc4F)C[C@H]3O)cc(F)c(Cl)c2N1` (relative stereo) [Example 277] displayed a melting point of 201 to 204 °C. `O=C1CCc2c(OC[C@]3(O)CCN(c4c(F)cc(F)cc4Cl)C[C@H]3O)ccc(F)c2N1` [Example 304] registered a melting point of 188 to 189 °C. `CSc1ccc(N2CCC(O)(COc3ccc(F)c4c3CCC(=O)N4)CC2)c(Cl)c1` returned a melting point of 207.4 to 207.6 °C. Turning to `O=C1CCc2c(cccc2OC[C@]2(O)CCN(c3c(F)cc(Cl)cc3F)C[C@H]2O)N1` (relative stereo) [Example 349], the melting point is 233 °C. `O=C1CCc2c(OCC3(O)CCN(c4cc(OCCF)c(Cl)cc4F)CC3)ccc(Cl)c2N1` yielded a melting point of 223 to 223.3 °C.

`O=C1CCc2c(OC[C@]3(O)CCN(c4c(F)cc(Br)cc4F)C[C@H]3O)ccc(F)c2N1` (relative stereo) [Example 301] returned a melting point of 191 to 193 °C. Consider `O=C1CCc2c(OC[C@]3(O)CCN(c4c(F)cc(Cl)cc4F)C[C@@H]3F)ccc(F)c2N1` (relative stereo) [Example 439], for which the melting point lay in the range of 223 to 224 °C. Take `O=c1ccc2c(OC[C@]3(O)CCN(c4ccc(Br)cc4F)C[C@H]3O)ccc(F)c2[nH]1`: the melting point is 224.5 °C (dec.). In the case of `CCc1cc(N2CCC(O)(COc3ccc(F)c4c3CCC(=O)N4)CC2)c(F)cc1Cl` it was 201.3 to 202.4 °C; in that of `CC(C)c1ccccc1N1CCC(O)(COc2ccc(F)c3c2CCC(=O)N3)CC1`, 163 to 163.3 °C. The compound `O=C1CCc2c(OC[C@]3(O)CCN(c4ccc(OC(F)(F)F)cc4)C[C@H]3O)ccc(F)c2N1` had a melting point of 196 to 197.1 °C. `O=C1CCc2c(OC[C@]3(O)CCN(c4c(F)cc(Cl)cc4F)C[C@H]3O)cc(F)c(Cl)c2N1` [Example 278] showed a melting point of 192 to 194 °C.

Take `O=C1CCc2c(OCC3(O)CCN(c4cc(OC(F)(F)F)ccc4Cl)CC3)ccc(F)c2N1`: the melting point lay within 190.4 to 190.5 °C. As to `O=C1CCc2c(OCC3(O)CCN(c4cc(OC(F)(F)F)c(Cl)cc4F)CC3)ccc(F)c2N1`, the melting point came to 208 °C.

Compound `CCOc1cc(F)c(N2CCC(O)(COc3ccc(Cl)c4c3CCC(=O)N4)CC2)cc1F` returned a melting point of 169 to 169.2 °C. The compound `O=C1CCc2c(OCC3(O)CCN(c4nc5ccc(Cl)cc5o4)CC3)ccc(F)c2N1` gave a melting point of 249 to 250 °C.

For `O=C1CCc2c(OC[C@]3(O)CCN(c4c(F)cc(F)cc4F)C[C@H]3O)ccc(F)c2N1` [Example 306], the melting point fell in the range of 191 to 192 °C. Turning to `O=C1CCc2c(OC[C@]3(O)CCN(c4ccc(Br)cc4F)C[C@H]3O)cc(F)c(Cl)c2N1` (relative stereo), the melting point is 194 °C.

For `CN(C)CCOc1cc(N2CCC(O)(COc3ccc(F)c4c3CCC(=O)N4)CC2)c(F)cc1Cl`, the melting point was 162.9 to 164.1 °C. In the case of `O=C1CCc2c(OCC3(O)CCN(c4cc(OC(F)(F)F)c(Cl)cc4Cl)CC3)ccc(F)c2N1` it was 254.8 to 254.9 °C; in that of `O=C1CCc2c(OCC3(O)CCN(c4ncc(Br)cc4F)CC3)ccc(Cl)c2N1`, 231.2 to 233.5 °C.

In turn, `O=C1CCc2c(OCC3(O)CCN(c4ccc(Cl)c(Cl)c4)CC3)ccc(F)c2N1` came in with a melting point of 230.9 to 231.2 °C. On to `COC(=O)NC1(COc2ccc(F)c3c2CCC(=O)N3)CCN(c2ncc(Cl)cc2Cl)CC1`, for which the melting point is 183 °C. `O=C1CCc2c(OC[C@]3(O)CCN(c4ccc(Cl)cc4F)C[C@H]3O)ccc(Cl)c2N1` (relative stereo) [Example 334]: the melting point lay within 195.5 to 195.6 °C. The compound `O=C1CCc2c(OCC3(O)CCN(c4ccsc4)CC3)ccc(F)c2N1` showed a melting point of 200.4 to 200.5 °C. As for `CCCCOc1cc(F)c(N2CC[C@@](O)(COc3ccc(F)c4c3CCC(=O)N4)[C@H](O)C2)c(F)c1`, the melting point was 185.8 to 186.2 °C.

For `O=C1CCc2c(OCC3(O)CCN(c4ccc(Cl)cc4[N+](=O)[O-])CC3)ccc(F)c2N1`, the melting point lay within 188 to 189 °C. Turning to `COCCOc1cc(N2CCC(O)(COc3ccc(F)c4c3CCC(=O)N4)CC2)c(F)cc1Cl`, the melting point is 170.6 to 170.8 °C. `O=C1CCc2c(OC[C@]3(O)CCN(c4ccc(F)cc4Cl)C[C@@H]3F)ccc(F)c2N1` (relative stereo) showed a melting point of 204 to 205 °C. In the case of `O=C1CCc2c(OC[C@]3(O)CCN(c4ccc(Cl)cc4F)C[C@H]3O)cc(F)c(F)c2N1` [Example 324] it was 192.6 to 193.4 °C; in that of `CCCOc1cc(N2CCC(O)(COc3ccc(F)c4c3CCC(=O)N4)CC2)c(F)cc1Cl`, 200.7 to 201.4 °C.
